Test results taken from paper PMC6332320, “Factors Influencing Oral Bioavailability of Thai Mango Seed Kernel Extract and Its Key Phenolic Principles” (Molecules, 2015).
Like-named read-outs stand apart in the source and are kept apart here. Marks after values point to notes of the source that are not given here.

What was measured:
[1] = Excretion in urine and feces after oral administration in rats; assay type: in vivo, Sprague-Dawley rats; conditions: for Total Mass in Feces (0−24 h) / Total Mass in Urine (0−24 h): p.o.; for dose excreted: Sprague-Dawley, rat, blood, urine and feces, oral, 0-24 h, read-out: % recovery (total mass recovery: blood + urine + feces / initial mass)
Procedure: SD rats (five rats/group) were individually housed in stainless-steel metabolic cages, which allowed for the separation and collection of urine and feces. The rats were fasted overnight with ad libitum access to water prior to the day of the experiment. After a rat was anesthetized with isoflurane gas, the prepared suspension of test compound in an oral suspension vehicle was administered to the animals via oral gavage at a dose of 20 mg/kg for each compound in the mixture of MG and PGG or at 143 mg/kg MSKE, which is equivalent to approximate doses of 20 mg/kg PGG and 0.13 mg/kg MG. Subsequently, the rats’ tails were snipped near the tip to collect blood samples (approximately 50 µL), which were collected in heparinized tubes at 0, 0.50, 1, 2, 4, 6, 8 and 24 h. To investigate the excretion of phenolic compounds, urine and feces were collected between 0–24 h post-administration into tubes containing penicillin G (200 mg) and dry tubes, respectively, which were pre-weighted before use. After completing the pharmacokinetic study, the urine volume and dry feces weights were recorded, and all samples were stored at −80 °C until analysis.
The blood and urine samples were prepared according to our previously reported methods. The fecal samples were prepared by adding 30 mL methanol to the sample, and the mixture was then vortexed and sonicated for 30 min to obtain the fecal lysates, which were extracted via the same method.
The pharmacokinetic parameters of MG and PGG were calculated based on the non-compartmental method using WinNonlin 3.3 (Pharsight Corporation, Mountain View, CA, USA). The total mass of analytes was calculated according to the following equations (Equations (3)–(6)): The mass recovery (%) = (total mass in blood + total mass in urine + total mass in feces)/initial mass of analyte (3) Total mass in blood = C24h in blood × rat blood volume (70 mL/kg of body weight) (4) Total mass in urine = C0–24h in urine × volume of urine (0–24 h) (5) Total mass in feces = C0–24h in fecal lysate × volume of fecal lysate (30 mL) (6) where C24h in the blood is the concentration of analyte found in the blood sample at 24 h, and C0–24h in the urine and C0–24h in the fecal lysate are the concentrations of the analyte found in the urine and fecal samples, respectively, between 0 and 24 h.

[2] = tested on: Caco-2 cell lysates; test: Biological stability in Caco-2 cell lysates; assay type: in vitro ADME, human; conditions: for stability in HBSS at pH 6 (blank control) / stability in Caco-2 cell lysates / stability in inactive Caco-2 cell lysates: individual compound 100 µM; for stability in HBSS at pH 6 (blank control): HBSS pH 6, up to 24 h; for stability in Caco-2 cell lysates: active cell lysates, within 24 h; for stability in inactive Caco-2 cell lysates: inactive (heated) cell lysates
Procedure: Caco-2 cells were cultured in T75 flasks at a seeding density of 2 × 10^6 cells/flask for 12–15 days. The cell lysate was freshly prepared by washing the cells twice with ice-cold HBSS at pH 6 (12 mL). The cells were then collected by scraping and resuspending in ice-cold HBSS at pH 6 (7.5 mL/flask). The cell suspension was vortexed and sonicated in an ice water bath for 30 min to obtain the lysate, which was kept on ice until use, and its cellular protein concentration was determined using a BCA™ protein assay kit (Thermo Fisher Scientific, Rockford, IL, USA) with bovine serum albumin as a reference standard.
Many phenolic compounds were subject to sulfation and glucuronidation by Caco-2 cells at concentrations higher than 20 μM [16, 21, 43] and the metabolites of GA, MG and PGG could not be observed in Caco-2 transport experiment. Therefore, the concentration of the standard pure compounds used in this study was higher than that used in the chemical stability experiment. After preparing the cell lysate, the test compounds were prepared by dissolution in HBSS at pH 6 and then added to the lysates for a final concentration of 1.08 mg/mL protein to obtain final individual concentrations of 100 μM for GA, MG and PGG and 0.75 mg/mL for MSKE, which is equivalent to concentrations of 55.12 ± 4.57 µM GA, 7.56 ± 0.85 µM MG and 110.02 ± 17.52 µM PGG. The mixtures were then incubated in a water bath at 37 °C for 24 h, and samples (50 µL for standard compounds, and 200 µL for MSKE) were collected at 0, 4, 6 and 24 h. Each sample was then added to an ice-cold 50% methanol (150 µL for GA, MG and PGG, and 600 µL for MSKE) to stop the reaction, vortexed and centrifuged at 15,500 rpm for 15 min, and the supernatant was injected into the UPLC for analysis.
The chemical and biological stabilities of the phenolic compounds were expressed as the concentration of the analyte at different time points relative to the concentration of the same analyte at time zero multiplied by 100 (% recovery).

[3] = MSKE 143 mg/kg (20 mg/kg PGG and 0.13 mg/kg MG)
[4] = mixture of MG and PGG 20 mg/kg each

| Structure (SMILES) | Total Mass in Feces (0−24 h) [1, 3] | Total Mass in Urine (0−24 h) [1, 3] | Total Mass in Feces (0−24 h) [1, 4] [µg] | Total Mass in Urine (0−24 h) [1, 4] [µg] | stability in HBSS at pH 6 (blank control) [2] | stability in Caco-2 cell lysates [2] | stability in inactive Caco-2 cell lysates ([2]; 24 h) | dose excreted [1, 3] [%] | dose excreted [1, 4] [%] | relative recoveries after incubation with Caco-2 cell lysates ([2]; as principle in MSKE 0.75 mg/mL, 24 h, relative to HBSS) |
| --- | --- | --- | --- | --- | --- | --- | --- | --- | --- | --- |
| O=C(O)c1cc(O)c(O)c(O)c1 [GA, Gallic acid] | 39.47 ± 17.44 ^b µg | 54.54 ± 26.59 µg | 9.64 ± 1.91 | 42.95 ± 26.88 | stable | degraded | stable | – | – | – |
| COC(=O)c1cc(O)c(O)c(O)c1 [MG, methyl gallate] | 18.35 ± 10.14 ^b µg | 9.81 ± 2.81 ^b µg | 3.25 ± 1.73 | 100.36 ± 74.67 | stable | degraded | stable | 73.4 ± 30 | < 2 | decreased relative recoveries |
